The NIST ThermoML archive (doi:10.1016/j.jct.2015.05.006)

How the values were obtained:
[1] = relative permittivity at various frequencies (dimensionless); xn = mol fraction of the nth substance listed; conditions: Liquid, Frequency=1 MHz, Parallel plate capacitor
[2] = xn = mol fraction of the nth substance listed; conditions: Liquid, Vibrating tube method

COCCOC [1,2-dimethoxyethane] + CCCCCCCC
97.1 kPa
Conditions | mass density, [2] [kg/m3] | relative permittivity, [1]
288.15 K, x2 = 0 | 872.06 | 7.41
288.15 K, x2 = 0.0493 | 857.73 | –
288.15 K, x2 = 0.0502 | – | 6.79
288.15 K, x2 = 0.1011 | 843.79 | –
288.15 K, x2 = 0.1035 | – | 6.21
288.15 K, x2 = 0.2005 | – | 5.31
288.15 K, x2 = 0.2032 | 819.39 | –
288.15 K, x2 = 0.3015 | – | 4.54
288.15 K, x2 = 0.3036 | 798.48 | –
288.15 K, x2 = 0.4019 | 780.49 | –
288.15 K, x2 = 0.4024 | – | 3.92
288.15 K, x2 = 0.4964 | – | 3.45
288.15 K, x2 = 0.4992 | 764.69 | –
288.15 K, x2 = 0.6022 | – | 3.01
288.15 K, x2 = 0.6046 | 749.52 | –
288.15 K, x2 = 0.7031 | – | 2.67
288.15 K, x2 = 0.707 | 736.47 | –
288.15 K, x2 = 0.8035 | – | 2.38
288.15 K, x2 = 0.8044 | 725.4 | –
288.15 K, x2 = 0.9038 | – | 2.15
288.15 K, x2 = 0.9082 | 714.88 | –
288.15 K, x2 = 0.9495 | 711.04 | –
288.15 K, x2 = 0.9511 | – | 2.06
298.15 K, x2 = 0 | 861.17 | 7.07
298.15 K, x2 = 0.0487 | – | 6.5
298.15 K, x2 = 0.0493 | 847.03 | –
298.15 K, x2 = 0.1004 | – | 5.97
298.15 K, x2 = 0.1011 | 833.26 | –
298.15 K, x2 = 0.2032 | 809.21 | –
298.15 K, x2 = 0.204 | – | 5.07
298.15 K, x2 = 0.3008 | – | 4.39
298.15 K, x2 = 0.3036 | 788.62 | –
298.15 K, x2 = 0.4019 | 770.94 | –
298.15 K, x2 = 0.4064 | – | 3.78
298.15 K, x2 = 0.4992 | 755.41 | –
298.15 K, x2 = 0.5043 | – | 3.32
298.15 K, x2 = 0.6046 | 740.56 | 2.93
298.15 K, x2 = 0.7038 | – | 2.62
298.15 K, x2 = 0.707 | 727.79 | –
298.15 K, x2 = 0.8039 | – | 2.35
298.15 K, x2 = 0.8044 | 716.95 | –
298.15 K, x2 = 0.9008 | – | 2.14
298.15 K, x2 = 0.9082 | 706.67 | –
298.15 K, x2 = 0.9495 | 702.91 | –
298.15 K, x2 = 0.9516 | – | 2.04
308.15 K, x2 = 0 | 850.13 | 6.75
308.15 K, x2 = 0.0493 | 836.17 | –
308.15 K, x2 = 0.0513 | – | 6.2
308.15 K, x2 = 0.1011 | 822.58 | –
308.15 K, x2 = 0.1017 | – | 5.71
308.15 K, x2 = 0.203 | – | 4.88
308.15 K, x2 = 0.2032 | 798.9 | –
308.15 K, x2 = 0.3025 | – | 4.23
308.15 K, x2 = 0.3036 | 778.63 | –
308.15 K, x2 = 0.4019 | 761.25 | –
308.15 K, x2 = 0.4021 | – | 3.69
308.15 K, x2 = 0.4992 | 746.01 | –
308.15 K, x2 = 0.5006 | – | 3.25
308.15 K, x2 = 0.6029 | – | 2.87
308.15 K, x2 = 0.6046 | 731.48 | –
308.15 K, x2 = 0.7028 | – | 2.57
308.15 K, x2 = 0.707 | 718.98 | –
308.15 K, x2 = 0.802 | – | 2.32
308.15 K, x2 = 0.8044 | 708.4 | –
308.15 K, x2 = 0.9027 | – | 2.11
308.15 K, x2 = 0.9082 | 698.35 | –
308.15 K, x2 = 0.9493 | – | 2.03
308.15 K, x2 = 0.9495 | 694.71 | –

COCCOC [1,2-dimethoxyethane] + CCCCCCCCCCCC
97 kPa
Conditions | mass density, [2] [kg/m3] | relative permittivity, [1]
288.15 K, x2 = 0 | 872.06 | 7.41
288.15 K, x2 = 0.05 | – | 6.6
288.15 K, x2 = 0.0501 | 856.95 | –
288.15 K, x2 = 0.101 | 843.87 | –
288.15 K, x2 = 0.1013 | – | 5.92
288.15 K, x2 = 0.2007 | – | 4.89
288.15 K, x2 = 0.2009 | 823.2 | –
288.15 K, x2 = 0.3011 | 807.11 | –
288.15 K, x2 = 0.3016 | – | 4.13
288.15 K, x2 = 0.402 | – | 3.57
288.15 K, x2 = 0.4022 | 794.1 | –
288.15 K, x2 = 0.5014 | 783.69 | –
288.15 K, x2 = 0.5015 | – | 3.15
288.15 K, x2 = 0.6016 | – | 2.81
288.15 K, x2 = 0.6019 | 774.99 | –
288.15 K, x2 = 0.6998 | – | 2.53
288.15 K, x2 = 0.7001 | 767.94 | –
288.15 K, x2 = 0.8049 | 761.62 | –
288.15 K, x2 = 0.8051 | – | 2.33
288.15 K, x2 = 0.9011 | 756.69 | –
288.15 K, x2 = 0.9019 | – | 2.16
288.15 K, x2 = 0.9514 | 754.42 | –
288.15 K, x2 = 0.9515 | – | 2.1
298.15 K, x2 = 0 | 861.17 | 7.07
298.15 K, x2 = 0.0499 | 846.45 | –
298.15 K, x2 = 0.05 | – | 6.31
298.15 K, x2 = 0.1013 | 833.6 | –
298.15 K, x2 = 0.102 | – | 5.66
298.15 K, x2 = 0.2014 | – | 4.71
298.15 K, x2 = 0.2016 | 813.45 | –
298.15 K, x2 = 0.3016 | – | 4
298.15 K, x2 = 0.3019 | 797.83 | –
298.15 K, x2 = 0.4011 | – | 3.48
298.15 K, x2 = 0.4015 | 785.4 | –
298.15 K, x2 = 0.5059 | 774.85 | –
298.15 K, x2 = 0.5061 | – | 3.06
298.15 K, x2 = 0.6021 | 766.88 | –
298.15 K, x2 = 0.6047 | – | 2.75
298.15 K, x2 = 0.7021 | 760.01 | –
298.15 K, x2 = 0.7033 | – | 2.51
298.15 K, x2 = 0.8048 | 754.06 | –
298.15 K, x2 = 0.8055 | – | 2.31
298.15 K, x2 = 0.9024 | – | 2.15
298.15 K, x2 = 0.9025 | 749.21 | –
298.15 K, x2 = 0.9491 | 747.21 | –
298.15 K, x2 = 0.9498 | – | 2.09
308.15 K, x2 = 0 | 850.13 | 6.75
308.15 K, x2 = 0.0495 | 835.93 | –
308.15 K, x2 = 0.05 | – | 6.04
308.15 K, x2 = 0.0982 | 824.01 | –
308.15 K, x2 = 0.1018 | – | 5.44
308.15 K, x2 = 0.2021 | 803.62 | –
308.15 K, x2 = 0.2026 | – | 4.53
308.15 K, x2 = 0.2982 | 789.08 | –
308.15 K, x2 = 0.3027 | – | 3.87
308.15 K, x2 = 0.4018 | 776.58 | –
308.15 K, x2 = 0.4043 | – | 3.38
308.15 K, x2 = 0.5024 | 766.76 | –
308.15 K, x2 = 0.505 | – | 3
308.15 K, x2 = 0.6046 | 758.6 | –
308.15 K, x2 = 0.6068 | – | 2.7
308.15 K, x2 = 0.6951 | 752.57 | –
308.15 K, x2 = 0.7013 | – | 2.48
308.15 K, x2 = 0.8031 | 746.52 | –
308.15 K, x2 = 0.806 | – | 2.28
308.15 K, x2 = 0.8975 | – | 2.14
308.15 K, x2 = 0.899 | 741.95 | –
308.15 K, x2 = 0.9502 | 739.81 | –
308.15 K, x2 = 0.9512 | – | 2.07
